Patent publication US7410975B2, “Small molecule toll-like receptor (TLR) antagonists” (Coley Pharmaceutical Group, Inc., priority 2003, dated 2008)

Molecular target: T1, human TLR3 (hTLR3) (Homo sapiens, UniProt O15455)
T1 construct: expressed in transfected cells
T1 sequence (O15455 24-904): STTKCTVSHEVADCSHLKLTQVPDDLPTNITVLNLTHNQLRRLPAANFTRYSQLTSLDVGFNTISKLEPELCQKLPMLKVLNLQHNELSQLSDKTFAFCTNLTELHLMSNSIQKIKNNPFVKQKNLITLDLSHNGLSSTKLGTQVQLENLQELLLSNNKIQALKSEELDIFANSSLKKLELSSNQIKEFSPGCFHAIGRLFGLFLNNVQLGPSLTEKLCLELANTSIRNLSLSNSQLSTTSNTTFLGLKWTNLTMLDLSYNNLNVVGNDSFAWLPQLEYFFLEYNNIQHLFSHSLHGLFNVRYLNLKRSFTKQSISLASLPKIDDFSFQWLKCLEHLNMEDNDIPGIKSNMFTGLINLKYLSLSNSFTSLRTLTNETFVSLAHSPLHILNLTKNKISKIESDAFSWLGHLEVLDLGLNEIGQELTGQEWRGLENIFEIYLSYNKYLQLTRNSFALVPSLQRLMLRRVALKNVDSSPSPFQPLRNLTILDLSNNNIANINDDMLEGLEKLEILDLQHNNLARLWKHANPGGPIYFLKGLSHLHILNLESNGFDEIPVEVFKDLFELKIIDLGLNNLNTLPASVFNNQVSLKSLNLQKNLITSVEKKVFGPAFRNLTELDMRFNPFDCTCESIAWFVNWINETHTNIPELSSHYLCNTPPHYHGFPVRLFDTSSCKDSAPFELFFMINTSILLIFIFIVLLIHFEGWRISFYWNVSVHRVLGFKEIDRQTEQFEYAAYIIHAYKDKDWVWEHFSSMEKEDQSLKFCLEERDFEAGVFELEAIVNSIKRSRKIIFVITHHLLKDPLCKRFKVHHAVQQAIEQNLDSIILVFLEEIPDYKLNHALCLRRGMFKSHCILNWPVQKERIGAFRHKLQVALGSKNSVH
Assay: Antagonist screen, hTLR3-NFκB-293 cells, NF-κB-luciferase reporter, with EC50 of poly(I:C)
Type: cell-based
Conditions: compound at 0.5, 5, 50 μg/ml; EC50 concentration of poly(I:C); 16 h; NF-κB-luciferase
Description: The method is described in greater detail as follows. The cells for each individual cell clone (hTLR3-NFκB-293, hTLR7-NFκB-293, hTLR8-NFκB-293 and hTLR9-NFκB-293) were counted and seeded one day before the stimulation at 1.5×10^4 cells per well in 96-well cell culture plates. To become adherent the cells were incubated after seeding overnight at 37° C. in 5% CO2 humidified air.
The screen for each compound was performed at the same time for all of the receptors TLR3, TLR7, TLR8 and TLR9. Up to fifteen test compounds, each assayed in duplicate at each of three different final concentrations (0.5 μg/ml, 5 μg/ml, and 50 μg/ml), were used for 16 h cell stimulation on a single multiwell culture plate. A 4× final concentration master plate was created to prepare the different test compounds before they were added to the cells.
Controls were added as duplicates individually for each cell clone on the cell culture plate. Positive controls were used as follows (final concentrations): 50 μg/ml poly(I:C) for hTLR3-NFκB-293; 8 μM resiquimod (R848) for hTLR7-NFκB-293; 30 μM R848 for hTLR8-NFκB-293; and 2.5 μM CpG-ODN 2006 for hTLR9-NFκB-293. Media alone was used as negative control. After addition of controls and small molecules, the cell clones were additionally stimulated with the EC50 concentration of the appropriate receptor-specific ligand.
The mean value of wells H2 and H5 (each with cells and EC50 concentration of the appropriate receptor-specific ligand) divided by the mean of wells H3 and H6 (each with cells alone) yielded the baseline response (i.e., fold induction of luciferase activity) to EC50 concentration of the appropriate receptor-specific ligand.
After 16 h stimulation the supernatant was removed and the cells treated with lysis buffer and stored at −80° C. before measuring.
For each screen result a graphical documentation was performed.
The baseline result (measured with addition of the EC50 concentration of the receptor-specific ligand) for each cell culture plate was measured as described above. Antagonistic effects were measured by down regulation compared to the baseline. Antagonists were scored as follows: • 13: compounds for which there was clear down regulation at 0.5 μg/ml, 5 μg/ml, and 50 μg/ml; • 12: compounds for which there was clear down regulation at 5 μg/ml and 50 μg/ml; • 11: compounds for which there was clear down regulation only at 50 μg/ml; • —: compounds for which there was no clear down regulation even at 50 μg/ml. Agonists
Results were expressed as fold induction over baseline luciferase activity measured in the absence of poly(I:C). […] Additional screening was performed in like manner using additional small molecules selected from another library or specifically prepared for this purpose. Scoring is reported as above but as applied to TLR3.

Compound | hTLR3 (inhibitory effect, antagonist score)
c1ccc2c(c1)[nH]c1cnccc12 [compound 470, norharman] | 11 (compounds for which there was clear down regulation only at 50 μg/ml)
O=C1c2ccccc2C(=O)c2c1ccc1c(=O)n(-c3ccccc3)[nH]c21 [compound 1042] | 11 (compounds for which there was clear down regulation only at 50 μg/ml)
Clc1ccccc1C(c1ccccc1)(c1ccccc1)n1ccnc1 [compound 267, Clotrimazole] | — (compounds for which there was no clear down regulation even at 50 μg/ml)
CN1CCN(C(c2ccccc2)c2ccccc2)CC1.Cl [compound 510, Cyclizine hydrochloride] | — (compounds for which there was no clear down regulation even at 50 μg/ml)
O=C1c2ccccc2C(=O)c2c1ccc1c(=O)n(C3CCCCC3)[nH]c21 [compound 1015] | — (compounds for which there was no clear down regulation even at 50 μg/ml)
O=C(O)c1cc(C(c2ccc(O)c(C(=O)O)c2)C(Cl)(Cl)Cl)ccc1O [compound 884] | — (compounds for which there was no clear down regulation even at 50 μg/ml)
Metixene hydrochloride [compound 491] | 12 (compounds for which there was clear down regulation at 5 μg/ml and 50 μg/ml)
CC[C@]12CCCN3CCc4c(n(c5ccccc45)C(=O)C1)[C@@H]32 [compound 607, Eburnamonine] | — (compounds for which there was no clear down regulation even at 50 μg/ml)
NC(=O)c1cccc2c1-c1ccccc1C2 [compound 1132] | 11 (compounds for which there was clear down regulation only at 50 μg/ml)
Cl.Cl.c1ccc2c3c([nH]c2c1)C1C2CCC(C4CCCNC42)N1CC3 (stereo not shown) [compound 685, Nitrarine dihydorchloride] | — (compounds for which there was no clear down regulation even at 50 μg/ml)
CN(C)CC/C=C1/c2ccccc2CSc2ccccc21.Cl [compound 488, Dosulepin hydrochloride] | 11 (compounds for which there was clear down regulation only at 50 μg/ml)
Cc1cccc(CN2CCN(C(c3ccccc3)c3ccc(Cl)cc3)CC2)c1.Cl.Cl (stereo not shown) [compound 457, Meclozinedihydrochioride] | — (compounds for which there was no clear down regulation even at 50 μg/ml)
CNCCCN1c2ccccc2CCc2ccccc21.Cl [compound 343, Desipraminehydrochloride] | 11 (compounds for which there was clear down regulation only at 50 μg/ml)
O=C(O)c1ccc(C2(c3ccc(C(=O)O)cc3)OC(=O)c3ccccc32)cc1 [compound 970] | — (compounds for which there was no clear down regulation even at 50 μg/ml)
C=CCc1ccccc1OC1(c2ccccc2)OC(=O)c2ccccc21 (stereo not shown) [compound 957] | 12 (compounds for which there was clear down regulation at 5 μg/ml and 50 μg/ml)
CN1CCC(OC(c2ccccc2)c2ccccc2)CC1.Cl [compound 707, Diphenylpyralinehydrochloride] | — (compounds for which there was no clear down regulation even at 50 μg/ml)
